11 compounds from US7893068B2, “Physiologically active substances” (Mercian Corporation, priority 2002, dated 2011) can be followed below.

Like-named read-outs stand apart in the source and are kept apart here.

The test system of one series is VEGF promoter. Put plainly: VEGF transcription-suppressing activity (VEGF promoter-PLAP reporter, U251/1-8 cells, hypoxia). The note with it: Homo sapiens, read-out: VEGF transcription-suppressing activities (IC50: nM). The series is classed as cell-based. From the text: In order to prepare reporter system reflecting transcription from VEGF promoter, VEGF promoter sequence was cloned, and inserted in secretory alkaline phosphatase (PLAP) vector to construct reporter vector.
In order to obtain the promoter region of human VEGF, VEGF genomic DNA was cloned from phage library. PCR primers having the sequences described in Sequence Numbers 1 and 2 were designed based on VEGF cDNA (GenBank accession number: X62568) and a fragment having about 340 bp was obtained by carrying out PCR. Human genomic phage library (Human genomic library, Clontech Co.) was screened using this as a probe to obtain VEGF genomic DNA. The DNA was digested by EcoRI, and the resultant fragments were inserted in the EcoRI site of pUC18. Finally, pUC18-VEGFA containing about 5.4 kb of VEGF 5′ flanking region was obtained. The pUC18-VEGFA was digested by KpnI/NheI, VEGF promoter region of about 2.3 kb obtained was inserted in the multi cloning site KpnI/NheI of secretory alkaline phosphatase (PLAP) vector (Goto et al, Mol. Pharmacol., 49, 860-873, 1996), and thus, VEGF-PLAP vector was constructed.
The above-mentioned VEGF-PLAP vector was transfected in the U251 cell cultured in the DULBECCO-modified eagle medium (DMEM; manufactured by SIGMA Co., Ltd.) containing 10% fetal calf serum, and the cells were cultured in the presence of 1 mg/mL G418 (Merck Co.) to establish G418 resistant stable clone (U251/1-8 cell).
It was confirmed that U251/1-8 cell secreted PLAP under hypoxic condition (2% O2 incubator) in the same manner as in the report (Cell. Mol. Biol. Res. 40, 35-39, 1994) and was a reporter system reflecting the transcription from VEGF promoter. The screening of the compound suppressing VEGF production which was induced by hypoxic stimulation was carried out below using the clone.
In order to remove the influence of alkaline phosphates in serum, U251/1-8 cells were rinsed twice with the adequate amount of PBS (Phosphate buffered saline), diluted in the DMEM medium containing 10% of serum in which alkaline phosphates was inactivated by the treatment of 65° C. for 20 min., and dispensed in 96-well plates by 4×10^4 cells/180 μL.
After culturing at 37° C. overnight in a CO2 incubator (5% CO2), 20 μL of the above-mentioned incubation solution containing the test compound diluted with 3-fold succession was added, and then they were incubated in a hypoxic (2% […]) incubator for 18 hours. With respect to the PLAP activity in the culture supernatants, 10 μL of the supernatants was added to 50 μL of 0.28 M Na2CO3—NaHCO3 buffer solution (pH 10.0, 8.0 mM MgSO4), and finally 50 μL of alkaline phosphatase substrate (LUMISTEIN, Genomescience Co.) was added. After reacting for one hour, the alkaline phosphatase activity of the PLAP was measured by detecting the chemical luminescence by a micro plate reader (Perkin-Elmer Co.). The PLAP activity under normoxia was set as 0%, the PLAP activity of cell which was treated under hypoxia was set as 100%, and the concentration suppressing the PLAP activity by 50% was set as the IC50 value of PLAP. The IC50 values of 11107D derivatives shown in Examples were measured, and the IC50 values of representative 11107D derivatives are shown in Table 1.

For series [1], the system named is WiDr human colon cancer cells. In words: Growth inhibitory activities on WiDr human colon cancer cells (MTT). The series is classed as cell-based. The note with it: 72 h, three days incubation. The method, then: WiDr human colon cancer cells cultured in DULBECCO-modified eagle medium (DMEM; manufactured by SIGMA Co., Ltd.) containing 10% fetal calf serum, penicillin (100 unit/mL) and streptomycin (100 μg/mL) were dispensed in 96-well plates by 2×10^3 cells/well. After culturing overnight in a CO2 incubator, 20 μL of the above-mentioned incubation solution containing the test compound diluted with 3-fold succession was added, followed by incubation. After three days, 50 μL of 3.3 mg/mL MTT solution was added, followed by culturing for further one hour. Then, formazan formed by the reduction by the action of living cells was extracted with 100 μL of DMSO, the absorbance (A540/A660) was determined and was set as the index of the number of living cells.
The concentrations of the compounds of the formula (I) at which the growth of WiDr human colon cancer cells are inhibited 50% were determined.

A short description of series [2]: Stability in an aqueous solution (HPLC residual ratio). The conditions noted are these: for Peak area (mAU × sec) after 24 hours / The residual ratios (%): Britton-Robinson's buffer pH 7, 25° C., 24 hours; for Peak area (mAU × sec) initial: Britton-Robinson's buffer pH 7, before incubation.
Procedure: The compounds of the formula (I) were dissolved in DMSO in concentrations of 10 to 20 mM, and these were diluted about 500 folds with Britton-Robinson's buffer solution of pH 7. Each of the solutions as sample solutions was incubated at 25° C. for 24 hours.
The sample solutions were analyzed by high performance liquid chromatography before and after incubation, and the residual ratios of the tested substances in the sample solutions after incubation were determined from the peak areas of the obtained chromatograms.
Series [3] deals with WiDr human colon cancer cells. In words: Solid tumor growth inhibitory activities, WiDr human colon tumor model in nude mice. The conditions noted are these: Mus musculus, iv, 360 h, read-out: Growth inhibitory activities in the WiDr human solid tumor model (T/C %). The series is classed as in vivo. The text has this: (§1) In order to study solid tumor growth inhibitory activities of the compounds of the formula (I) in vivo, WiDr human colon cancer cells were implanted subcutaneously into the flanks of nude mice. […]. The animals were grouped so that the average of the volumes of the respective groups became uniform, when it reached about 100 mm^3. Control group was made up of 10 mice and 11107D-administering groups were made up of 5 mice. The derivatives were administered for the administering groups for 5 consecutive days by intravenous injection so as to be any of 0.625 mg, 1.25 mg, 2.5 mg, 5 mg and 10 mg/kg/day, and a vehicle was administered to the control group. The tumor volumes on Day 15 were measured, and relative tumor volume ratios (T/C %) were determined setting the tumor volume of the control group as 100%. The body weights on Day 1, Day 5, Day 8, Day 12 and Day 15 (or 16) were measured, and relative body weight variations were determined setting the body weight on Day 1 as 100%. The relative body weight ratios on the day where the body weight reached the minimum were defined as the minimum relative weight ratios and are shown in Table 3.

A short description of series [4]: Body weight loss (acute toxicity) in the WiDr tumor model. The series is classed as in vivo, nude mice. The conditions noted are these: Dose 2.5 mg/kg, intravenous 5 consecutive days; body weight relative to Day 1.
Text: as §1

For orientation: IC50 means the point on the concentration scale where inhibition reaches its midpoint. In the case of `CCC(O)C(C)C1OC1CC(C)(O)/C=C/C=C(\C)C1OC(=O)CC(O)CCC(C)(OC)C(OC(=O)N2C[C@@H]3C[C@H]2CN3CC)/C=C/C1C` (stereo in doubt) [Compound 122, (8E,12E,14E)-7-(((1S,4S)-5-Ethyl-2,5-diazabicyclo[2.2.1]heptan-2-yl)carbonyl)oxy-3,16,21-trihydroxy-6-methoxy-6,10,12,16,20-pentamethyl-18,19-epoxytricosa-8,12,14-trien-11-olide], the concentration for half-maximal inhibition (IC50) with VEGF promoter (U-251, 18 h) turned out to be 4.4 nM. The compound also gave a half-inhibitory concentration (IC50) in series [1] of 1.1 nM. In series [2], the “Peak area (mAU × sec) after 24 hours” value stood at 4620 mAU × sec, the “The residual ratios (%)” value was determined as 94.8% and the “Peak area (mAU × sec) initial” value was determined as 4872 mAU × sec.

Consider `CCC(O)C(C)C1OC1CC(C)(O)/C=C/C=C(\C)C1OC(=O)CC(O)CCC(C)(O)C(OC(=O)N(C)C2CCN(C)CC2)/C=C/C1C` (centres unmarked) [Compound 15, (8E,12E,14E)-3,6,16,21-Tetrahydroxy-6,10,12,16,20-pentamethyl-7-(N-methyl-N-(1-methylpiperidin-4-yl)carbamoyloxy)-18,19-epoxytricosa-8,12,14-trien-11-olide], for which the response vs control in vivo at 2.5 mg/kg in series [3] is 36%. The “the minimum relative weight ratios” value in series [4] is given as 0.82.

In the case of `CCC(O)C(C)C1OC1CC(C)(O)/C=C/C=C(\C)C1OC(=O)CC(O)CCC(C)(O)C(OC(=O)N2CCCN(Cc3ccccc3)CC2)/C=C/C1C` (centres unmarked) [Compound 17, (8E,12E,14E)-7-((4-Benzylhomopiperazin-1-yl)carbonyl)oxy-3,6,16,21-tetrahydroxy-6,10,12,16,20-pentamethyl-18,19-epoxytricosa-8,12,14-trien-11-olide], the concentration for half-maximal inhibition (IC50) was 3.9 nM with VEGF promoter (U-251, 18 h) and 2.6 nM in series [1].

Take `CCC(O)C(C)C1OC1CC(C)(O)/C=C/C=C(\C)C1OC(=O)CC(O)CCC(C)(O)C(OC(=O)N2CCN(Cc3ccccc3)CC2)/C=C/C1C` (centres unmarked) [Compound 24, (8E,12E,14E)-7-((4-Benzylpiperazin-1-yl)carbonyl)oxy-3,6,16,21-tetrahydroxy-6,10,12,16,20-pentamethyl-18,19-epoxytricosa-8,12,14-trien-11-olide]: the IC50 was 5.5 nM with VEGF promoter (U-251, 18 h) and 5.3 nM in series [1].

As to `CCCN1CCN(C(=O)OC2/C=C/C(C)C(/C(C)=C/C=C/C(C)(O)CC3OC3C(C)C(O)CC)OC(=O)CC(O)CCC2(C)O)CC1` (centres unmarked) [Compound 25, (8E,12E,14E)-3,6,16,21-Tetrahydroxy-6,10,12,16,20-pentamethyl-7-((4-propylpiperazin-1-yl)carbonyl)oxy-18,19-epoxytricosa-8,12,14-trien-11-olide], the IC50 with VEGF promoter (U-251, 18 h) turned out to be 2.9 nM; in series [1] it was 1.2 nM.

As to `CCC(O)C(C)C1OC1CC(C)(O)/C=C/C=C(\C)C1OC(=O)CC(O)CCC(C)(O)C(OC(=O)N2CCN(CC3CC3)CC2)/C=C/C1C` (centres unmarked) [Compound 27, (8E,12E,14E)-7-((4-(Cyclopropylmethyl)piperazin-1-yl)carbonyl)oxy-3,6,16,21-tetrahydroxy-6,10,12,16,20-pentamethyl-18,19-epoxytricosa-8,12,14-trien-11-olide], the IC50 in the series with VEGF promoter (U-251, 18 h) amounted to 3.7 nM; in series [1], 1.2 nM.

`CCC(O)C(C)C1OC1CC(C)(O)/C=C/C=C(\C)C1OC(=O)CC(O)CCC(C)(OC)C(OC(=O)N2CCCN(C3CCCCC3)CC2)/C=C/C1C` (centres unmarked) [Compound 95, (8E,12E,14E)-7-((4-Cyclohexylhomopiperazin-1-yl)carbonyl)oxy-3,16,21-trihydroxy-6-methoxy-6,10,12,16,20-pentamethyl-18,19-epoxytricosa-8,12,14-trien-11-olide]: the IC50 worked out at 1.2 nM with VEGF promoter (U-251, 18 h) and 0.5 nM in series [1].

For the compound `CCOC1(C)CCC(O)CC(=O)OC(/C(C)=C/C=C/C(C)(O)CC2OC2C(C)C(O)CC)C(C)/C=C/C1OC(=O)N1CCN(C)CC1` (centres unmarked) [Compound 127, (8E,12E,14E)-6-Ethoxy-3,16,21-trihydroxy-6,10,12,16,20-pentamethyl-7-((4-methylpiperazin-1-yl)carbonyl)oxy-18,19-epoxytricosa-8,12,14-trien-11-olide], the IC50 with VEGF promoter (U-251, U251/1-8 cells, hypoxic incubator 18 hours, PLAP activity) turned out to be 2.4 nM; in series [1] it was 0.7 nM.

Consider `CCC(OC)C(C)C1OC1CC(C)(O)/C=C/C=C(\C)C1OC(=O)CC(O)CCC(C)(O)C(OC(=O)N2CCN(C(C)C)CC2)/C=C/C1C` (centres unmarked) [Compound 130, (8E,12E,14E)-3,6,16-Trihydroxy-7-((4-isopropylpiperazin-1-yl)carbonyl)oxy-21-methoxy-6,10,12,16,20-pentamethyl-18,19-epoxytricosa-8,12,14-trien-11-olide], for which, in series [2], the “Peak area (mAU × sec) after 24 hours” value was 4583 mAU × sec, the “The residual ratios (%)” value is listed as 95.1% and the “Peak area (mAU × sec) initial” value is reported as 4819 mAU × sec.

As for `CCC(O)C(C)C1OC1CC(C)(O)/C=C/C=C(\C)C1OC(=O)CC(O)CCC(C)(OC(=O)N2CCCN(CC)CC2)C(OC(C)=O)/C=C/C1C` (centres unmarked) [Compound 136, (8E,12E,14E)-7-Acetoxy-6-((4-ethylhomopiperazin-1-yl)carbonyl)oxy-3,16,21-trihydroxy-6,10,12,16,20-pentamethyl-18,19-epoxytricosa-8,12,14-trien-11-olide], the IC50 with VEGF promoter (U-251, 18 h) came out at 1.2 nM. Moreover, in series [1], inhibition was half-maximal at 0.8 nM (IC50). In addition, in series [2], the “Peak area (mAU × sec) after 24 hours” value was 3579 mAU × sec, the “The residual ratios (%)” value is reported as 95.4% and the “Peak area (mAU × sec) initial” value was found to be 3750 mAU × sec.

As to `CCC(O)C(C)C1OC1CC(C)(O)/C=C/C=C(\C)C1OC(=O)CC(O)CCC(C)(O)C(OC(=O)CCc2ccccc2)/C=C/C1C` (centres unmarked) [Compound 142, (8E,12E,14E)-3,6,16,21-Tetrahydroxy-6,10,12,16,20-pentamethyl-7-(3-phenylpropanoyl)oxy-18,19-epoxytricosa-8,12,14-trien-11-olide], in the series on VEGF promoter (U-251, 18 h), the IC50 is 11.2 nM. In addition, the IC50 in series [1] was 4.9 nM. In addition, in series [2], the “Peak area (mAU × sec) after 24 hours” value is 3705 mAU × sec, the “The residual ratios (%)” value was 94.6% and the “Peak area (mAU × sec) initial” value turned out to be 3916 mAU × sec.
